These results are taken from patent US20260120814A1, “SYSTEMS, METHODS, AND DEVICES FOR PREDICTING PHARMACOKINETIC INFLUENCES ON KETOGENESIS FOLLOWING ADMINISTRATION OF TRICAPRILIN” (CERECIN INC., priority 2022, published 2026).

Series [1] is described as follows: PBB model population parameters fitted to the phase I clinical trial. Details: species or system humans. The note with it: population parameter, after peroral AC-SD-03. From the text: In some scenarios the PBB model 102 can be written in the Mixtran programming language and executed using Monolix 2020R1 (e.g., Antony, France). The initial parameters and fixed-parameter ranges (e.g., such as those shown in Table 1 and/or the model inputs 106) can be obtained (e.g., from experimentation data and/or literature data).
In the following, population parameters can be obtained for the target population treated with a MCT formulation (e.g., AC-SD-03) using the Stochastic Approximation Expectation-Maximization (SAEM) algorithm. The population parameters can be considered to be log-normally distributed. Additionally, the estimation tasks of the empirical Bayes estimates (EBEs) and the conditional distribution can be performed to calculate the individual predictions and give the uncertainty of the individual parameters and the data for each individual, respectively. The individual clinical data 124 for the free fatty acid (e.g., octanoic acid) and ketones obtained from the pharmacokinetic study can be used for model validation. For instance, the accuracy of the prediction can be assessed by calculating the relative mean absolute prediction error (MAPE, %) using the following equation: […]
In some scenarios, considering that all population parameters can be within the initial ranges and prediction errors can remain at a low level, initial values (Table 1) can provide an estimate of the physiological and formulation-related influences. This leads to the following conclusions. Once tricaprilin reaches the small intestine, with a rate of 1.7 h^1, the absorption of fatty acids can become the rate-limiting step. Also, there can be more significant fluctuations in the absorption rate between different individuals as compared to the much faster lipolysis (4.6 h-1) and ketogenesis (2.6 h^1). The conversion of octanoic acid in the liver can play a minor role in the availability of the active form of tricaprilin. […] These observations can be systematically evaluated in the PPSA, and/or can be provided to the PBB model 102 as model inputs 106 or as part of a validation process.

Details of series [2]: species or system humans. The note with it: human, in vivo. From the text: To estimate the parameters involved in the distribution, metabolism, and elimination of the free fatty acid (such as octanoic acid), reliable data sources can be identified for generating a training data set to describe plasma pharmacokinetics after intravenous administration of either free fatty acids (such as octanoic acid) or ketones. Pharmacokinetic data 120 related to the MCT (such as tricaprilin) and its metabolites in humans, which can be included in the training data 122 and/or used by a validation system 124 of the biopharmaceutics modeling system, is summarized in Table 2:
In some examples, ketone plasma concentration can be quantified following an intravenous bolus injection of sodium acetoacetate (n=12). Acetoacetate and D-f3-hydroxybutyrate (n=6), two main components of plasma ketones, can also be quantified upon intravenous infusion of D-f3-hydroxybutyrate at three different doses. Blood free fatty acid (such as octanoic acid) concentration can be measured upon peroral administration of the free fatty acid (e.g, octanoic acid) at five different doses to a patient population (n=3 per dose). This pharmacokinetic data 120 can be analyzed using PKanalix 2020R1 (e.g., Lixoft, Antony, France). These injections, infusions, and/or consumptions of the doses by a target patient can be provided to the PBB model 102 (e.g., as the patient data 105). […]

The nature of series [3]: Estimated absorption of undigested tricaprilin into blood circulation. The note with it: during the first 4 hours. The method, then:
As a next step, the digestion of the MCT formulation (such as AC-SD-03) in vitro can be measured. The formulation can be exposed to a gastric medium followed by lipolysis in a medium simulating intestinal conditions. The latter can result in the liberation of fatty acids expressed as the percentage of digested free fatty acid (e.g., tricaprilin), as shown at the graph 306. For each mole of tricaprilin, three moles of titratable fatty acids can be released. Within the first 5 min, 40±3% of tricaprilin can be converted to octanoic acid, followed by a gradual reduction in the digestion rate. After 15 min, the digestion profile plateaued at 83±4%. Assuming rapid absorption from the intestine, the digestion rate (kd) and extent (F) of lipolysis are mainly responsible for the bioavailability of octanoic acid. […] On a side note, there can be a certain probability that undigested tricaprilin can be absorbed into blood circulation as well. However, one estimated rate can be […] for this process. This corresponds to less than 0.5% of the total dose during the first 4 hours. […] Metabolic processes such as the hepatic conversion of tricaprilin would generally result in the formation of octanoic acid, subsequently converted to ketone bodies.

A short description of series [4]: Phase I clinical pharmacokinetic study of AC-SD-03. It is filed as in vivo, healthy male (Caucasian and Chinese) volunteers. To be noted: human. On the procedure:
A clinical pharmacokinetic study can be conducted (e.g., to generate the model inputs 106) with the MCT formulation. For example, a clinical pharmacokinetic study was conducted on the tricaprilin product AC-SD-03, approved by the local Institutional Review Board and carried out in compliance with the Good Clinical Practice guidelines of the International Conference of Harmonization (ICH-GCP). It was an open-label, randomized 2-way crossover study. Twenty healthy male (Caucasian and Chinese) volunteers in an age range of 18-50 years were enrolled. All subjects had undergone a supervised overnight fast of at least 8 h until 1 h before their scheduled morning dose. The breakfast consisting of 2 pieces of toast with butter, 2 strips of bacon, 2 scrambled eggs, 113 g of hash browns, and 240 mL of whole milk was standardized for all subjects. […] An additional 60 ml of water was used to rinse the dosing cup and administered to the subjects. Water was only restricted 1 h before and 1 h after drug administration, but was allowed ad libitum at all other times. Food and other fluid intake was restricted throughout the confinement period. Upon peroral administration of a single dose of the formulation, the blood tricaprilin, octanoic acid, and ketone body concentrations were quantified. For tricaprilin, blood samples were collected at 0, 1.5, 2.0, 2.5, and 8 h. […]

For series [5] the following is noted: cited from earlier work.

SMILES strings stand for the structures. Values after ≈ are worked out from the molar mass of the structure shown.

A word on the Cmax: it is the peak of the concentration-time curve. By aqueous solubility is commonly meant the concentration that dissolves in the medium under given conditions.

With `CCCCCCCC(=O)O` [octanoic acid], in series [1], the “absorption rate of fatty acids” value was 1.7 h^1 and the ketogenesis rate is reported as 2.6 h^1. In addition, in series [2], the “VOA, volume of distribution of octanoic acid” value is 40.55 to 163.26 L and the “absorption rate constant (ka)” value lay in the range of 0.23 to 3.16 h⁻¹.
As to `CCCCCCCC(=O)OCC(COC(=O)CCCCCCC)OC(=O)CCCCCCC` [Tricaprilin], the lipolysis rate in series [1] came out at 4.6 h⁻¹. The “fraction of total dose absorbed as undigested tricaprilin” value in series [3] is recorded as “less than 0.5%”. Further, the “tricaprilin found in blood circulation” value in series [4] (phase I clinical trial, peroral AC-SD-03) is “negligible amounts”. Also, the Cmax in series [4] (male, blood, oral, 50 g AC-SD-03 (42,500 μmol tricaprilin), read-out: Cmax of undigested triglyceride) turned out to be 1050 nM. Moreover, the aqueous solubility in series [5] was 0.4 µg/mL (≈ 0.85 µM).
